Source: patent US20250195520A1, “COMBINATION THERAPY USING A PTPN11 INHIBITOR AND AN EGFR INHIBITOR” (NAVIRE PHARMA, INC., priority 2021, published 2025)
Entries after “also recorded” stand apart in the source; their conditions may differ.

Columns and labels:
[1] = system: MPAS-plus signature (MAPK pathway) in HCC827-ER1 tumors; assay: RNA sequencing (QuantSeq), MPAS-plus signature in HCC827-ER1 xenograft tumors; format: in vivo, mouse; conditions: for effect on MPAS-plus signature: across timepoints
Method: (§1) In vivo modeling, treatment and data analysis. […] Dosing started ˜3 weeks after the subcutaneous implantation of the tumor cells. Dosing volume was 5 mL/kg for each compound, and was adjusted based on individual mouse weight. Dosing and sample harvesting followed the schedule below. There was a 6-hour interval between the morning dose and the afternoon dose, and tumor/plasma samples were harvested at three timepoints during the 24-hour dosing cycle.

[2] = system: HCC827 subcutaneous tumors; assay: HCC827 subcutaneous xenograft, tumor volume; format: in vivo, mouse
Method: (§2) Cell lines. The HCC827 cell line was purchased from ATCC. […] The cells were cultured in RPMI-1640 medium (Sigma #RO883)+10% FBS (Sigma #F7524)+2 mM L-glutamine (Sigma #59202C) in 37° C. tissue culture incubator with 5% CO2.
(§3) Test animals. Female athymic nude mice (Envigo UK, Hsd: Athymic Nude-Foxn1nu) were utilized in this experiment. Animals were between 5 and 6 weeks of age at time of xenograft implantation. Animal welfare complies with the UK Animals Scientific Procedures Act 1986 (ASPA) in line with Directive 2010/63/EU of the European Parliament and the Council of 22 Sep. 2010 on the protection of animals used for scientific purposes. All experimental data management and reporting procedures were in strict accordance with applicable Crown Bioscience UK Guidelines and Standard Operating Procedures.
(§4) In vivo modeling, treatment and data analysis. For xenograft studies with the HCC827 and HCC827-ER1 cells, 5 million cells in 200 μL Matrigel (Corning #354234) were injected subcutaneously into the left flank of 5˜6 weeks old female athymic nude mice (Envigo UK). […] Dosing started ˜3 weeks post the subcutaneous implantation of the tumor cells. Dosing volume was 5 mL/kg for each compound, and was adjusted based on individual mouse weight from the daily measurements. Tumor volume was measured twice a week.
(§5) Data were analyzed using Microsoft Excel and GraphPad Prism 8.0. Day 0 was the day before treatment started. Body weight change was calculated based on the following formulas.

[3] = Body weight in the HCC827-ER1 xenograft study; conditions: Day 15
Method: In vivo modeling, treatment and data analysis. […] Dosing started ˜3 weeks post the subcutaneous implantation of the tumor cells. Dosing volume was 5 mL/kg for each compound, and was adjusted based on individual mouse weight from the daily measurements. Tumor volume was measured twice a week.
as §5
BWi and BW0 are the body weight of an individual mouse on measurement day I and on day 0, respectively.

[4] = system: HCC827-ER1 subcutaneous tumors; assay: HCC827-ER1 subcutaneous xenograft, tumor volume; format: in vivo, mouse; conditions: for Number of regressions: regressions/animals remaining
Method: as §2, §3, §4, §5

[5] = system: DUSP6 mRNA (MAPK pathway signaling) in HCC4006-OsiR cells; assay: In vitro pharmacodynamic assay, Taqman qRT-PCR of DUSP6 in HCC4006-OsiR cells; format: cell-based, human; conditions: osimertinib 100 nM, formula (10b) 3 μM, 4-hour, 48-hour, 7-day treatment
Method: In vitro pharmacodynamic assay—Taqman qRT-PCR assay. The HCC4006-OsiR cells were plated in 6-well plates (Corning #353046) in 2 mL media and allowed to adhere overnight. […] Four hours later, 4-hour samples were harvested by removing media and lysing cells in each well with 350 μL RLT lysis buffer (Qiagen #79216) with 1% 2-mercaptoethanol. Samples were processed either right way or stored at −20° C. until further analysis. On day 3 and day 8, 48-hour samples and 7-day samples were harvested in the same way. Cells harvested at these two timepoints were switched to fresh media containing compounds 24 hours before sample harvesting.
RNA was extracted from lysates using RNeasy mini RNA isolation kit (Qiagen #74106). Isolated RNA was quantified using Nanodrop 8000 (Thermo Fisher). cDNA was synthesized using high capacity cDNA reverse transcription kit (Thermo Fisher #4368813) with 1 μg total RNA per reaction on a BioRad Tetrad2 thermal cycler (25° C. for 10 min, 37° C. for 120 min, 85° C. for 5 min then hold at 4° C.). The cDNA was further diluted 1:10 using ddH2O. Quantitative real-time PCR was conducted using the following Taqman probes and Taqman universal master mix II without UNG (Thermo Fisher #4440040) on QuantStudio 6 in 384-well format (Thermo Fisher), following vendor's protocols. Each well contains a target probe of interest conjugated to FAM dye (DUSP6, Thermo Fisher Assay ID Hs01044001_m1), and an endogenous control conjugated to VIC dye (human RPLPO, Thermo Fisher #4326314E). Each cDNA was run in three technical replicates.
The ΔΔCt method was used to analyze the qRT-PCR data. […] To calculate fold change, the relative mRNA levels of each sample were normalized to that in DMSO treated samples (fold change for DMSO treated samples was set at “1”). Calculations were done in Microsoft Excel and the graphs were generated in GraphPad Prism 8.0.

[6] = system: NCI-H1975 (C797S+) tumors; assay: NCI-H1975 (C797S+) tumor model, tumor volume; format: in vivo, mouse
[7] = Plasma concentration by LC-MS/MS in mice bearing HCC827-ER1 tumors (PK/PD study)
Method: as §1
(§6) Blood collection for pharmacokinetic analysis. Blood from live animals for pharmacokinetic (PK) analyses was obtained via the lateral saphenous vein. The mouse was placed in a restraint tube and the hind leg immobilized in the extended position. Resting the foot of the animal on a solid surface, a sterile 25g needle (BD Microlance 3) was inserted into the saphenous vein on the top of the foot. The needle was removed and the blood collected using an EDTA coated capillary blood tube (Microvette CB 300 K2E) by capillary action to a volume of 100 μL.
The tube was inverted several times to distribute the EDTA evenly and then centrifuged at 13,000 rpm, 4° C. (VWR Micro Star 17R) for 5 minutes to generate plasma. The supernatant (plasma) was carefully transferred to a 1.5 mL tube and stored at −80° C.
(§7) The detection conditions of the mass spectrometer were as follows: capillary voltage, 3 kv; cone voltage, 50 ev; collision energy, 25 ev; source temperature, 150° C.; desolvation temperature, 400° C.; desolvation gas flow, 1000 L/hr; cone gas glow, 0.15 mL/min. […] The injection volume was 5 μL. The LC mobile phase A was 0.1% acetic acidwater and B was 0.1% acetic acid-acetonitrile. […] The column temperature was 40° C. […] All data were processed using the MAssLynx v. 4.0 software.

[8] = Plasma exposure by LC-MS/MS in the HCC827 xenograft study; conditions: for Formula (10b) Plasma concentration: 6-8 hours post the final dose of formula (10b) 100 mg/kg QD, mean ± SD
Description: as §6, with “μL. The tube was inverted several times to distribute the EDTA evenly and then centrifuged at 13,000 rpm, 4° C. (VWR Micro Star 17R) for 5 minutes to generate plasma. The supernatant (plasma) was carefully transferred to a 1.5 mL tube and stored at −80° C.” for “μL.”
For each analysis, 25 μL of plasma sample was precipitated with 200 μL of acetonitrile containing imipramine (70 ng/mL) as an internal standard.
as §7

[9] = HCC827 xenograft, formula (10b) 100 mg/kg QD, osimertinib 5 mg/kg QD, PO, 21 days

## Cc1c(N2CCC3(CC2)CO[C@@H](C)[C@H]3N)nc(C)n(-c2cccc(Cl)c2Cl)c1=O (atropisomer, axis not shown; (Ra)) [Formula (10b), 6-((3S,4S)-4-amino-3-methyl-2-oxa-8-azaspiro[4.5]decan-8-yl)-3-(Ra)-(2,3-dichlorophenyl)-2,5-dimethylpyrimidin-4 (3H)-one]
[1]; 6-hour and 8-hour after formula (10b) administration
  mRNA levels of the MPAS-plus genes: potently suppressed the mRNA levels of the MPAS-plus genes
[1]
  effect on MPAS-plus signature: suppresses the MPAS-plus signature
[2]; [9]
  tumor growth (tumor volume): suppresses the growth of the HCC827 subcutaneous tumors; also recorded: tumor stasis
[3]
  Mean body weight change: +6.3%
[4]; Day 15, HCC827-ER1 xenograft, formula (10b) 100 mg/kg QD, osimertinib 5 mg/kg QD
  TGI: 84%
[4]; Day 15, HCC827-ER1 xenograft
  Number of regressions: 0/4
[4]; HCC827-ER1 xenograft, formula (10b) 100 mg/kg QD, osimertinib 5 mg/kg QD, PO, 21 days
  tumor growth (tumor volume): suppresses the growth of the HCC827-ER1 tumors; also recorded: tumor stasis
[5]
  DUSP6 mRNA levels: reduces the transcript levels of MAPK pathway signature gene DUSP6; also recorded: potently suppressed DUSP6 mRNA levels at all three timepoints tested
[6]
  tumor growth (tumor volume): suppresses the growth; also recorded: robust tumor regression
[7]; 6 hours and 8 hours after dosing, 100 mg/kg, monotherapy and in combination with osimertinib
  Formula (10b) Plasma concentration: 30 to 50 µM
[7]; 24 hr post (10b) (18 hr post osimertinib), formula (10b) 100 mg/kg PO, mean ± SD
  10(b) plasma concentration: 1.34 ± 0.24 µM
[7]; female, athymic nude, mouse, plasma, oral, 100 mg/kg, 10(b) plasma concentration, 6 hr post (10b) (24 hr post osimertinib), formula (10b) 100 mg/kg PO, mean ± SD
  concentration at 6 h: 47400 ± 5200 nM
[7]; female, athymic nude, mouse, plasma, oral, 100 mg/kg, 10(b) plasma concentration, 8 hr post (10b) (2 hr post osimertinib), formula (10b) 100 mg/kg PO, mean ± SD
  concentration at 8 h: 35800 ± 9100 nM
[7]; female, athymic nude, mouse, plasma, oral, 100 mg/kg, 10(b) plasma concentration, 24 hr post (10b) (18 hr post osimertinib), formula (10b) 100 mg/kg PO, mean ± SD
  concentration at 24 h: ~1000 nM
[8]; HCC827 xenograft model
  Formula (10b) Plasma concentration: 14.1 ± 5.6 µM
[8]; HCC827 xenograft model, listed as formula (10b)
  Formula (10b) Plasma concentration: 14.1 µM

## C=CC(=O)Nc1cc(Nc2nccc(-c3cn(C)c4ccccc34)n2)c(OC)cc1N(C)CCN(C)C [Osimertinib]
[1]
  effect on MPAS-plus signature: little effect on the MPAS-plus signature
[2]; [9]
  tumor growth (tumor volume): tumor stasis
[2]; mouse, in vivo
  tumor growth (tumor volume): robust tumor regression
[3]
  Mean body weight change: +1.0%
[4]; Day 15, HCC827-ER1 xenograft
  Number of regressions: 0/4
[4]; mouse, in vivo
  TGI: 64%
  tumor growth (tumor volume): continued to grow during the treatment period
[5]
  DUSP6 mRNA levels: did not suppress DUSP6 mRNA levels
[7]; 2 hr post osimertinib (8 hr post (10b)), osimertinib 5 mg/kg PO, mean ± SD
  osimertinib plasma concentration: 681 ± 277 nM
[7]; 18 hr post osimertinib (24 hr post (10b)), osimertinib 5 mg/kg PO, mean ± SD
  osimertinib plasma concentration: low nanomolar range
[7]; 24 hr post osimertinib (6 hr post (10b)), osimertinib 5 mg/kg PO, quantitation limit 2 nM
  osimertinib plasma concentration: BQL
[7]; female, athymic nude, mouse, in vivo, 5 mg/kg, osimertinib plasma concentration, 2 hr post osimertinib (8 hr post (10b)), osimertinib 5 mg/kg PO, mean ± SD
  concentration at 2 h: ~700 nM
[7]; female, athymic nude, mouse, in vivo, 5 mg/kg, osimertinib plasma concentration, 18 hr post osimertinib (24 hr post (10b)), osimertinib 5 mg/kg PO, mean ± SD
  concentration at 18 h: 2.1 ± 0.14 nM
[7]; female, athymic nude, mouse, in vivo, 5 mg/kg, osimertinib plasma concentration, 24 hr post osimertinib (6 hr post (10b)), osimertinib 5 mg/kg PO, quantitation limit 2 nM
  concentration at 24 h: < 2 nM
[8]; 24 hours post the final dose of osimertinib 5 mg/kg QD, HCC827 xenograft model, quantitation limit 2 nM
  osimertinib plasma concentration: BQL
[8]; athymic nude, mouse, in vivo, 5 mg/kg
  concentration at 24 h: < 2 nM
